# Assay results taken from patent publication US20150366962A1 (priority 2014, published 2015).
# Experiments:
# [1] = system: Mouse bone marrow-derived dendritic cells (mBMDCs); test: Antigen (OVA-Alexa Fluor 488) uptake in mouse BMDCs, flow cytometry; assay type: cell-based, C57BL/6 mice; conditions: 10 μM 1Z105 or MPLA overnight, 37° C., OVA-488 last 30 min
# Method: (§1) (A) Upregulation of antigen uptake by 1Z105. BMDCs prepared from C57BL/6 mice were incubated with 10 μM 1Z105 or MPLA overnight. Antigen, Alexa Fluor 488-conjugated ovalbumin (OVA-488), was added to the culture for the last 30 min of incubation. The cells were washed and stained for CD11c. OVA-associated dendritic cells in the CD11c^hi population were evaluated by flow cytometry. Cells incubated at 4° C. served as a negative control. (B and C) Enhancement of expression of costimulatory molecules by 1Z105.WT (B) or Tlr4^−/− (C) BMDCs were incubated with 1Z105 (10 or 2 μM) or MPLA (0.04 μg/ml) overnight, and expression of CD40 and CD86 was assessed by flow cytometric assay. (D) 1Z105 promotes antigen cross-presentation. Wild-type BMDCs were incubated with 1Z105 (2 μM) overnight, and OVA (10 μg/ml) was added to the culture for the last 4 h of incubation. […] OT-1 T-cell proliferation was monitored by flow-cytometric assay. […] Cytokine release of IL-1β, IL-6, IL-8, IL-12p70, and TNF-α was determined by Luminex bead assay. […]
# (§2) Mouse bone marrow-derived dendritic cells (mBMDCs) were prepared from wild type or Tlr4^−/− C57BL/6 mice. mBMDCs (10^5 cells per well) were plated in 96-well plates in 200 μl of complete RPMI 1640. […] The cells were stained for CD11c, and OVA uptake and expression of CD40 and CD86 in the CD11chi-gated population was determined by flow cytometry.
# [2] = system: Mouse bone marrow-derived dendritic cells (mBMDCs); test: Costimulatory-molecule (CD40, CD86) expression in mouse BMDCs; assay type: cell-based, C57BL/6 mice
# Method: as §1, §2
# [3] = system: CD8+ OT-1 T cells cultured with BMDCs; test: OT-1 CD8 T cell proliferation assay (antigen cross-presentation); assay type: cell-based, C57BL/6 mice; conditions: BMDCs with 1Z105 2 μM or MPLA 1 μg/ml overnight, OVA 10 μg/ml, 3 days
# Method: (A) Upregulation of antigen uptake by 1Z105. BMDCs prepared from C57BL/6 mice were incubated with 10 μM 1Z105 or MPLA overnight. Antigen, Alexa Fluor 488-conjugated ovalbumin (OVA-488), was added to the culture for the last 30 min of incubation. The cells were washed and stained for CD11c. OVA-associated dendritic cells in the CD11c^hi population were evaluated by flow cytometry. Cells incubated at 4° C. served as a negative control. (B and C) Enhancement of expression of costimulatory molecules by 1Z105.WT (B) or Tlr4^−/− (C) BMDCs were incubated with 1Z105 (10 or 2 μM) or MPLA (0.04 μg/ml) overnight, and expression of CD40 and CD86 was assessed by flow cytometric assay. (D) 1Z105 promotes antigen cross-presentation. Wild-type BMDCs were incubated with 1Z105 (2 μM) overnight, and OVA (10 μg/ml) was added to the culture for the last 4 h of incubation. The cells were washed and cultured with CFSE-labeled CD8^+ OT1Tcells for 3 days. OT-1 T-cell proliferation was monitored by flow-cytometric assay. […] Cytokine release of IL-1β, IL-6, IL-8, IL-12p70, and TNF-α was determined by Luminex bead assay. […]
# Naive CD8^+ T cells from OT-1 C57BL/6 mice were isolated using an EasySep Mouse CD8^+ T Cell Isolation Kit and stained with carboxyfluorescein succinimidyl ester (CFSE) (10 μM). […] OT-1 T cell proliferation was monitored by CFSE dilution using a flow cytometer.
# [4] = system: human monocyte-derived DCs; test: Cytokine induction of human monocyte-derived dendritic cells (Luminex); assay type: cell-based; conditions: 10 μM, 18 h
# Method: as §1, with “cross-presentation.” for “cross-presentation. Wild-type BMDCs were incubated with 1Z105 (2 μM) overnight, and OVA (10 μg/ml) was added to the culture for the last 4 h of incubation.”
# Human primary dendritic cells (DCs) were generated. […] The supernatants were stored at −20° C. for later quantification of released cytokines. Quantification of IL-1β, IL-6, IL-8, IL-12p70, and tumor necrosis factor alpha (TNF-α) released in supernatants was performed using the Milliplex Multiplex Assays (Luminex; Millipore, Billerica, Mass.) according to the manufacturer's instructions. Data were analyzed using the Milliplex Analyst software (Millipore).
# BMDC (C57BL/6) = test: IL-6 and IP-10 release by BMDC with 1V270 with or without 1Z105; assay type: cell-based, C57BL/6 mice; conditions: 1V270 0.025 or 0.1 μM with 1Z105 5 μM
# Method: To evaluate whether 1Z105 can enhance the proinflammatory cytokine induction by 1V270, BMDC (C57BL/6) were incubated with 1V270 (0.025, or 0.1 μM) in the presence or absence of 1Z105 (5 μM). […] Antigen presenting function was evaluated using splenocytes prepared from OVA MHC class II-restricted alpha beta T cell receptor (TCR) transgenic mice OT-II. Splenocytes were cultured with OVA peptide (OVA323-339) for 3 days with 1Z105, or 1V270 alone or in combination. The frequency of intracellular (IC) IFNγ expressing CD4 T cells was determined by flow cytometric assay. Treatment with 1V270 alone increased intracellular IFNγ (3.7 and 6.8% by 25 and 100 nM, respectively).
# [5] = system: B/Florida/04/2006 (Yamagata lineage); design: species or system BALB/c mice; conditions: mouse, in vivo
# [6] = in EV3 and EV7; requested 0.22-0.44 mg/mL
SMILES,OVA-associated CD11chi BMDCs (antigen uptake) [1],surface expression of CD40 and CD86 ([2]; TLR4-deficient (Tlr4-/-) BMDCs),"surface expression of CD40 and CD86 ([2]; WT BMDCs, 1Z105 10 or 2 μM, MPLA 0.04 μg/ml, overnight)",proliferation of OT-1 cells (antigen cross-presentation) [3],"proinflammatory cytokine release (IL-1β, IL-6, IL-8, IL-12p70, TNF-α) [4]",IL-6 release induced by 1V270 (BMDC (C57BL/6)),IP-10 release induced by 1V270 (BMDC (C57BL/6)),mortality compared to the no-adjuvant group [5],solubility of 1V270 [6]
Cn1c2ccccc2c2nc(SCC(=O)NC3CCCCC3)n(-c3ccccc3)c(=O)c21 [Compound 1Z105],increased number,not observed,increased the surface expression of CD40 and CD86 at levels similar to that of MPLA,induced proliferation of OT-1 cells,"activated human monocyte-derived DCs, resulting in proinflammatory cytokine release",significantly enhanced,significantly enhanced,,
CCCCCCCCC=CCCCCCCCC(=O)OCC(COP(=O)(O)OCCNC(=O)c1ccc(Cn2c(=O)[nH]c3c(N)nc(OCCOC)nc32)cc1)OC(=O)CCCCCCCC=CCCCCCCCC (stereo not drawn) [Compound 1V270],,,,,,,,significantly reduced,achieved to the requested concentration
